Test results from patent publication US20240041042A1, “1-(PYRIDYL)-5-AZINYLPYRAZOLE DERIVATIVES, AND THEIR USE FOR CONTROL OF UNDESIRED PLANT GROWTH” (Bayer Aktiengesellschaft, priority 2020, published 2024).
Where two headings read alike, the source gives them in different places.

Assays:
Assay type in all cases: in vivo
[1] = test system: Abutilon theophrasti (ABUTH); assay: Post-emergence herbicidal action against ABUTH; details: visual rating about 3 weeks after treatment vs untreated controls (100% = plants have died, 0% = like control plants)
How it was run: (§1)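 Post-emergence greenhouse spray, one-leaf stage, 600 l/ha water plus 0.5% additive; WP or EC formulations; application rates 320 g/ha or lower. Visual % damage vs untreated controls at ~3 weeks.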

[2] = test system: Alopecurus myosuroides (ALOMY); assay: Post-emergence herbicidal action against ALOMY; details: visual rating about 3 weeks after treatment vs untreated controls (100% = plants have died, 0% = like control plants)
How it was run: as §1

[3] = test system: Amaranthus retroflexus (AMARE); assay: Post-emergence herbicidal action against AMARE
How it was run: as §1

Avena fatua (AVEFA) = assay: Post-emergence herbicidal action against AVEFA; details: visual rating about 3 weeks after treatment
How it was run: as §1

[4] = test system: Digitaria sanguinalis (DIGSA); assay: Post-emergence herbicidal action against DIGSA; details: visual rating about 3 weeks after treatment
How it was run: as §1

[5] = test system: Echinochloa crus-galli (ECHCG); assay: Post-emergence herbicidal action against ECHCG
How it was run: as §1

Lolium rigidum (LOLRI) = assay: Post-emergence herbicidal action against LOLRI
How it was run: as §1

[6] = test system: Matricaria inodora (MATIN); assay: Post-emergence herbicidal action against MATIN
How it was run: as §1

[7] = test system: Pharbitis purpurea (PHBPU); assay: Post-emergence herbicidal action against PHBPU
How it was run: as §1

[8] = test system: Polygonum convolvulus (POLCO); assay: Post-emergence herbicidal action against POLCO
How it was run: as §1

Setaria viridis (SETVI) = assay: Post-emergence herbicidal action against SETVI
How it was run: as §1

[9] = test system: Verconica persica (VERPE); assay: Post-emergence herbicidal action against VERPE
How it was run: as §1

Viola tricolor (VIOTR) = assay: Post-emergence herbicidal action against VIOTR
How it was run: as §1

Oryza sativa (ORYSA) = details: crop plant compatibility
How it was run: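 One-leaf-stage crops (2–3 wk post-sowing, sandy loam, greenhouse) sprayed on green parts; 0.5% additive, 600 l/ha water. Rated by eye ~3 wk later, % vs untreated; suffixes a/b/c mark different dosages.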

[10] = 80 g/ha, visual rating about 3 weeks after treatment vs untreated controls (100% = plants have died, 0% = like control plants)
[11] = 320 g/ha, visual rating about 3 weeks after treatment
[12] = 20 g/ha, effect vs untreated controls

SMILES | Post-emergence action against ABUTH in % ([1]; 80 g/ha) [%] | Post-emergence action against ABUTH in % ([1]; 320 g/ha) [%] | Post-emergence action against ALOMY in % ([2]; 320 g/ha) [%] | Post-emergence action against AMARE in % [3, 10] [%] | Post-emergence action against AMARE in % [3, 11] [%] | Post-emergence action against AVEFA in % (Avena fatua (AVEFA); 80 g/ha) [%] | Post-emergence action against AVEFA in % (Avena fatua (AVEFA); 320 g/ha) [%] | Post-emergence action against DIGSA in % ([4]; 320 g/ha) [%] | Post-emergence action against ECHCG in % ([5]; dosage 80 g/ha) [%] | Post-emergence action against ECHCG in % ([5]; dosage 320 g/ha) [%] | Post-emergence action against LOLRI in % (Lolium rigidum (LOLRI); dosage 80 g/ha) [%] | Post-emergence action against LOLRI in % (Lolium rigidum (LOLRI); dosage 320 g/ha) [%] | Post-emergence action against MATIN in % ([6]; dosage 80 g/ha) [%] | Post-emergence action against MATIN in % ([6]; dosage 320 g/ha) [%] | Post-emergence action against PHBPU in % ([7]; dosage 80 g/ha) [%] | Post-emergence action against PHBPU in % ([7]; dosage 320 g/ha) [%] | Post-emergence action against POLCO in % ([8]; dosage 80 g/ha) [%] | Post-emergence action against POLCO in % ([8]; dosage 320 g/ha) [%] | Post-emergence action against SETVI in % (Setaria viridis (SETVI); dosage 80 g/ha) [%] | Post-emergence action against SETVI in % (Setaria viridis (SETVI); dosage 320 g/ha) [%] | further results
COC(=O)[C@@H](C)Oc1nn(-c2ncccc2F)c(-c2cncc(F)c2)c1I [Example I-197] | 90 | 90 | 90 | 90 | 90 | 90 | 90 | 90 | 90 | 90 | 90 | 90 | 80 | 90 | 90 | 100 | 90 | 90 | 90 | 90 | Post-emergence action against ALOMY in % ([2]; 80 g/ha): 90%; Post-emergence action against DIGSA in % ([4]; 80 g/ha): 90%; Post-emergence action against VERPE in % ([9]; 320 g/ha, VERPE): 90%; Post-emergence action against VERPE in % ([9]; dosage 80 g/ha): 90%; Post-emergence action against VIOTR in % (Viola tricolor (VIOTR); 80 g/ha): 90%; Post-emergence action against VIOTR in % (Viola tricolor (VIOTR); 320 g/ha): 90%; Post-emergence action against ORYSA in % (Oryza sativa (ORYSA); [12]): 0%; Post-emergence action against ORYSA in % (Oryza sativa (ORYSA); 80 g/ha, effect in comparison to untreated controls): 10%
COC(=O)[C@@H](C)Oc1nn(-c2ncccc2F)c(-c2cncc(F)c2)c1C1CC1 [Example I-144] | 80 | 90 | 90 | 90 | 90 | 90 | 90 | 90 | 90 | 90 | 90 | 90 | 90 | 90 | 90 | 90 | 80 | 80 | 90 | 90 | Post-emergence action against ALOMY in % ([2]; 80 g/ha): 90%; Post-emergence action against DIGSA in % ([4]; 80 g/ha): 90%; Post-emergence action against VERPE in % ([9]; 320 g/ha, VERPE): 90%; Post-emergence action against VERPE in % ([9]; dosage 80 g/ha): 90%; Post-emergence action against VIOTR in % (Viola tricolor (VIOTR); 80 g/ha): 90%; Post-emergence action against VIOTR in % (Viola tricolor (VIOTR); 320 g/ha): 90%; Post-emergence action against ORYSA in % (Oryza sativa (ORYSA); [12]): 0%
CCOC(=O)[C@@H](C)Oc1nn(-c2nc(F)ccc2F)c(-c2cncc(F)c2)c1C1CC1 [Example I-177] | 90 | 90 | 100 | 90 | 90 | 90 | 90 | 90 | 100 | 100 | 100 | 100 | 90 | 90 | 90 | 90 | 90 | 90 | 90 | 90 | Post-emergence action against VERPE in % ([9]; 320 g/ha, VERPE): 100%; Post-emergence action against VERPE in % ([9]; dosage 80 g/ha): 100%; Post-emergence action against VIOTR in % (Viola tricolor (VIOTR); 80 g/ha): 100%; Post-emergence action against VIOTR in % (Viola tricolor (VIOTR); 320 g/ha): 100%; Post-emergence action against ORYSA in % (Oryza sativa (ORYSA); [12]): 0%
